Test results reported in US12391768B2, “Antibodies to ticagrelor and methods of use” (MEDIMMUNE LIMITED, priority 2014, dated 2025).

Key:
TICA0010 Fab = test: HTRF competition binding selectivity assay, TICA0010 His-Fab; parameters: species or system human; conditions: first series (Table 2), not DMSO normalised; read-out: IC50 (uM) for inhibition of biotinylated ticagrelor binding to TICA00l0 his-Fab
Experimental: (§1) Total Binding control wells were set up which contained all of the assay components above except that 5 ul assay buffer was added in place of the test selectivity compound addition. Negative Binding control wells were set up which contained all of the assay components included in the Total Binding control wells except that 5ul assay buffer was added in place of the His-Fab addition. Test compound serial titrations were either ½ or ⅓ depending on the particular experiment and top final assay compound concentrations were optimized on a compound specific basis. The concentration of biotinylated ticagrelor and His-Fab was optimized on a Fab specific basis in separate experiments. For the four Fabs investigated at the end of the lead isolation phase (TICA0010, TICA0049, TICA0053 and TICA0072) the final assay reagent concentrations used are set out in Table 1 below:
(§2) For the two Fabs investigated at the end of the lead optimization phase (TICA0162 and TICA0212) the final assay reagent concentrations used were 5nM biotinylated ticagrelor and 1 nM His Fab in both cases. […] In order to enable subsequent normalization of data to correct for any such vehicle related effects parallel titrations of DMSO alone were included in most experiments in which the final assay DMSO concentrations mirrored those of the test compound serial dilutions. At the end of the set up procedure that assay was incubated for 3hrs at RT before being read on an Envision plate reader using a standard read protocol.
(§3) The negative ratio value used in the calculation of % Delta F was derived from the Negative Binding control wells. % Delta F values were then used to calculate % Specific Binding values according to the equation below: Specific Binding (%)={(Sample Delta F−Negative Binding Delta F)/(Total Binding Delta F−Negative Binding Delta F)}×100
(§4) For standard calculations of % Specific Binding Total Binding Delta F was taken from Total Binding control wells which contained all of the aforementioned components of the assay but without inclusion of any competing test compound.
(§5) In those experiments where DMSO normalization was applied DMSO normalised % Specific Binding was calculated essentially according to the equation above except that in this case Total Binding Delta F was taken from wells containing all of the components in the Total Binding control wells as well as DMSO at a concentration equivalent to that in the relevant sample well.

TICA0049 Fab = test: HTRF competition binding selectivity assay, TICA0049 His-Fab; parameters: species or system human; conditions: second series (Table 3), DMSO normalised; read-out: IC50 in competition binding selectivity studies, TICA0049
Experimental: as §1, §2, §3, §4, §5
(§6) In a second series of experiments further selectivity data was generated for TICA0049 and TICA0072 Fabs in which a subset of four of the twelve compounds listed in FIG. 4 were retested along with ticagrelor, TAM and TIM and several adenosine related compounds. Here, in a refinement to the earlier investigations in Table 2, experiments were designed in order to enable normalisation of percent specific binding values to correct for any non-specific vehicle related effects due to DMSO. Example plotted data from this second series of experiments is shown in FIG. 5A-F along with tabulated IC50 values in Table 3.

TICA0053 Fab = test: HTRF competition binding selectivity assay, TICA0053 His-Fab; parameters: species or system human; conditions: first series (Table 2), not DMSO normalised; read-out: IC50 (uM) for inhibition of biotinylated ticagrelor binding to TICA0053 his-Fab
Experimental: as §1, §2, §3, §4, §5

TICA0072 Fab = test: HTRF competition binding selectivity assay, TICA0072 His-Fab; parameters: species or system human; conditions: second series (Table 3), DMSO normalised; read-out: IC50 in competition binding selectivity studies, TICA0072
Experimental: as §1, §2, §3, §4, §5, §6

TICA0162 Fab = test: HTRF competition binding selectivity assay, TICA0162 His-Fab; parameters: species or system human; conditions: Table 7, DMSO normalised; 5 nM biotinylated ticagrelor, 1 nM His Fab; read-out: IC50 (uM) for inhibition of biotinylated ticagrelor binding to TICA0162 Fab
Experimental: as §1
as §2, with “protocol. […]” for “protocol.”
as §5

TICA0212 Fab = test: HTRF competition binding selectivity assay, TICA0212 His-Fab; parameters: species or system human; conditions: Table 7, DMSO normalised; 5 nM biotinylated ticagrelor, 1 nM His Fab; read-out: IC50 (uM) for inhibition of biotinylated ticagrelor binding to TICA0212 Fab
Experimental: as §1
For the two Fabs investigated at the end of the lead optimization phase (TICA0162 and TICA0212) the final assay reagent concentrations used were 5nM biotinylated ticagrelor and 1 nM His Fab in both cases. […] At the end of the set up procedure that assay was incubated for 3hrs at RT before being read on an Envision plate reader using a standard read protocol. […]

[1] = Total plasma concentration of ticagrelor and TAM (LC-MS/MS); assay type: in vivo, mice; conditions: Example 12
Experimental: Blood samples were collected in tubes with EDTA anticoagulant and centrifuged for 5 min at 10000× g at room temperature to prepare plasma. The plasma concentration of ticagrelor and TAM were determined by protein precipitation and liquid chromatography with tandem mass spectrometry (LC-MS/MS) as described in published method [Sillén H., et al., J Chromatogr B Analyt Technol Biomed Life Sci 2010; 878: 2299-306] with the following deviations. Plasma, 50 μL, was protein precipitated with 180 μl internal standard (D7-ZD6140) in acetonitrile. The liquid chromatographic system and mass spectrometer was an Acquity Ultra Performance LC coupled to a Xevo TQ-S mass spectrometer from Waters. Chromatographic separation was achieved on an Aquity UPLC® BEH C18 column (2.1×50 mm, particle size 1.7 um). Negative electrospray ionization was utilized. Eluent A was water with 10 mmol/L ammonium acetate, pH5 and eluent B was acetonitrile with 10 mmol/L ammonium acetate. Injection volume was 1 to 5 μL and the analytical gradient started with 4% B, increasing to 95% in 1.5 min, remaining until 2.3 min, before returning to initial conditions within 2.4 min followed by 0.3 min re-equilibration. No quality control samples were used in the analysis. The lower limit of quantification (LLOQ) was 0.005 μmol/L and the calibration range was 0.005 to 15.0 μM.
The total plasma concentrations of ticagrelor and TAM in presence of TICA0212/MEDI2452 were determined by adding 1% formic acid (FA: Sample, 1:5) followed by protein precipitation and LC-MS/MS as described above. Formic acid was added to the sample to facilitate dissociation of ticagrelor and TICA0212/MEDI2452.

[2] = cited from earlier work
P2Y12 = P2Y12 (Homo sapiens, UniProt Q9H244); conditions: cited from earlier work
Sequence of P2Y12 (Q9H244 whole entry): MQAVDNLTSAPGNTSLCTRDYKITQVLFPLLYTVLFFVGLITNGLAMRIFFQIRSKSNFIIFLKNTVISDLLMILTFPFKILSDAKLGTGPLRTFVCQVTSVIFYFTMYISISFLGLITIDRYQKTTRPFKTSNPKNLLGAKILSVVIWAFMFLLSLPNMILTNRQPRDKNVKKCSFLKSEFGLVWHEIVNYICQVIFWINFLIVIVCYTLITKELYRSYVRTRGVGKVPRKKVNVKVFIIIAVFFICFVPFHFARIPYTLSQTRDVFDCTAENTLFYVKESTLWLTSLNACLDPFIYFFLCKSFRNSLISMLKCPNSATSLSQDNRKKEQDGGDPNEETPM

[3] = target: TICA0159 IgG binding to biotinylated ticagrelor; test: Second generation HTRF epitope competition assay
Experimental: Purified parent TICA0072 (scFv or Fab) was used as a benchmark in all experiments such that improvements in IC50 measured with optimized variants (scFv or Fab) could be expressed as fold improvements over parent TICA0072. Total Binding Control Wells contained all assay components except that 5 ul assay buffer was added in place of the purified scFv or Fab sample. Negative Binding control wells contained all of the components of the Total Binding control wells except that 5 ul of assay buffer was added in place of the TICA0072 IgG.
In both single point HTS and multipoint IC50 profiling versions of the assay. plates were incubated for 3 hrs at RT before being read on an Envision plate reader using a standard HTRF read protocol in which samples are excited at 337 nm and time resolved fluorescence emission is measured at both 620 nm and 665 nM.
Raw 665 nm and 620 nm counts were used to calculate Delta F (%) and % Specific Binding according to the equations described earlier in Assays 1 and 4, respectively. For multipoint secondary profiling experiments IC50 values were determined using Graphpad Prism software using sigmoidal dose response (variable slope) curve fitting (4 parameter logistic equation).
This assay was used only in multipoint IC50 profiling format (as opposed to HTS format) and was performed essentially identically to the method given in Assay 5 (above) for multipoint IC50 profiling of purified Fab variants in the parent TICA0072 IgG based epitope competition assay. The only difference being that TICA0159 IgG was used in place of TICA0072 IgG at the appropriate point in the assay set up but at the same 16nM final assay concentration. In all other respects this assay was performed exactly as described above in the multipoint secondary profiling version for purified Fab.

[4] = HTRF HTS of periplasmic scFv, Assay 3 versus Assay 1; assay type: binding; conditions: 30 nM biotinylated ticagrelor, 50-fold excess (1500 nM) unmodified ticagrelor
Excerpt: Using known techniques, a human scFv phage display library was used to generate scFv antibodies, and specific scFvs were isolated from the library in a series of repeated selection cycles on biotinylated ticagrelor with deselection on biotinylated adenosine, essentially as described in Lloyd et al 2009 PEDS 22: 159-168, incorporated herein by reference. A number of individual clones from the round 2 and round 3 selection outputs were selected, seFvs were expressed in the bacterial periplasm and screened for specificity in three parallel biochemical assays. […]
Assays 1, 2, and 3 were performed using the same general techniques and strategy. […] HTRF® (homogeneous time resolved fluorescence) is based upon the principle of TR-FRET (time resolved fluorescence resonance energy transfer). […] Provided the donor and acceptor fluorophores are in sufficiently close proximity (approx. <10 nm), the excitation of the Europium cryptate donor (337 nm) results in a transfer of energy to the XL^665 acceptor which in turn emits a fluorescence signal at 665 nm. […]
Raw 665 nm and 620 nm counts were first converted into 665 nm/620 nm ratio values and subsequently results were expressed as Delta F (%) values. Delta F was calculated according to the following equation: Delta F (%)={((sample 665/620 ratio)−(negative 665/620) ratio))/(negative 665/620 ratio)}×100 […]

IC50 (TICA0010 Fab)	IC50 (TICA0049 Fab)	IC50 (TICA0053 Fab)	IC50 (TICA0072 Fab)	IC50 (TICA0162 Fab)	IC50 (TICA0212 Fab)	mean total plasma concentration ([1]; end of ticagrelor infusion 300 μg/kg/min 20 min, mice)	mean total plasma concentration at time of tail cut ([1]; vehicle treated mice, t=30 minutes)	IC50 ([3]; Fab, 16 nM TICA0159 IgG, 1 nM biotinylated ticagrelor)	Fold Improved ([3]; IC50 relative to parent TICA0072 Fab)	% inhibition of binding observed in Assay 3 versus Assay 1 [4]	Molecule	circulating half-life ([2]; human, in vivo)	concentration as % of the parent ticagrelor concentration ([2]; patients on BRILINTA/BRILIQUE)	P2Y12 antagonist activity (P2Y12)
0.124 µM	366 nM	0.134 µM	483 nM	0.032 µM	0.031 µM	0.3 µM	0.6 µM	–	–	–	CCCSc1nc(N[C@@H]2C[C@H]2c2ccc(F)c(F)c2)c2nnn([C@@H]3C[C@H](O)[C@@H](O)[C@H]3O)c2n1 [TAM]	12 h	30-40%	equally effective
–	–	–	–	–	–	–	–	1710 nM	0	> 90%	TICA0072: parent anti-ticagrelor/TAM antibody; VH SEQ ID NO:32, VL SEQ ID NO:37 (antibody, listed as Homo sapiens, V domains shown) VH: QVQLQESGAEVKKPGSSVRVSCKASGGTFDSYSIHWVRQAPGQGLEWMGGIIPAFGTLSSAQDFQARVTISADKSTSTAYMELSGLRSEDTAVYYCARGSHLYDFWSASHPPNDALAIWGQGTLVTVSS VL: QSVVTQPPSVSAAPGQKVTISCSGSNSDIGNNYVSWYQQLPGTAPKLLIYDNNKRPSGIPDRFSGSKSGTSATLAITGLQAGDEADYYCGTWDISLSAGLFGGGTKVTVL	–	–	–
